The values below are quoted from earlier work in PMC10644327, “A randomized, double‐blind phase 1b study evaluating the safety, tolerability, pharmacokinetics and pharmacodynamics of the NLRP3 inhibitor selnoflast in patients with moderate to severe active ulcerative colitis” (Clinical and Translational Medicine, 2023).

On the set-up of this data set: method as in earlier work. Conditions: added to standard‐of‐care therapy, patients with acute severe UC; cited from earlier work.

With anakinra, the Clinical outcome was “did not improve the clinical outcome”.
